Target: CK2A1 (CK2α/β) (Homo sapiens, UniProt P68400)
Experiment: CK2 kinase assay, CK2A1 (CK2α/β)
Format: biochemical
Settings: Table A; read-out: CK2A1 (CK2α/β) (IC50)

CK2A1 (CK2α/β), sequence (P68400 whole entry, species assumed): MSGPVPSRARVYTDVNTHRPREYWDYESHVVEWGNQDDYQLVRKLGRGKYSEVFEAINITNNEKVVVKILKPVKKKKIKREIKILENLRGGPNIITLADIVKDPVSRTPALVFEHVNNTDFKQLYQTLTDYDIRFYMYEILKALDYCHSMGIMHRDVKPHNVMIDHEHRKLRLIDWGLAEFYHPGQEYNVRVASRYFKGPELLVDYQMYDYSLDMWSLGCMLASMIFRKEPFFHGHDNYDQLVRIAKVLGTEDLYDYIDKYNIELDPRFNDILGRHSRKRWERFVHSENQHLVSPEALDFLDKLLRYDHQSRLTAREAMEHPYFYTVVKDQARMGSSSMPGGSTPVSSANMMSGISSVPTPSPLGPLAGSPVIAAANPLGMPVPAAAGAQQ
CK2A1 (CK2α/β), sequence (P67870 whole entry partner, species assumed): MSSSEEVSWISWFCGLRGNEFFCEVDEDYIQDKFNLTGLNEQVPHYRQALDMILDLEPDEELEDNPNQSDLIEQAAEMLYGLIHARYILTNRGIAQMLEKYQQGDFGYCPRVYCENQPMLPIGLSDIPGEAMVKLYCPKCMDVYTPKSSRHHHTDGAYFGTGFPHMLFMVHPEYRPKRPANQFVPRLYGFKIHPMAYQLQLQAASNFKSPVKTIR

IC50 | Compound
0.34 nM | N#Cc1cc(NCCCO)c(Cl)c(Nc2nc(NC3CC3)c3ncc(C#N)n3n2)c1 [Example 617, 2-((2-chloro-5-cyano-3-((3-hydroxypropyl)amino)phenyl)amino)-4-(cyclopropylamino)imidazo[2,1-f][1,2,4]triazine-7-carbonitrile]
2.07 nM | CN1CCN(c2cc(C#N)cc(Nc3nc(NC4CC4)c4ncc(C#N)n4n3)c2Cl)C(=O)C1 [Example 618, 2-((2-chloro-5-cyano-3-(4-methyl-2-oxopiperazin-1-yl)phenyl)amino)-4-(cyclopropylamino)imidazo[2,1-f][1,2,4]triazine-7-carbonitrile]
1.66 nM | CN(CCO)CC(=O)Nc1cc(C#N)cc(Nc2nc(NC3CC3)c3ncc(C#N)n3n2)c1Cl [Example 619, N-(2-chloro-5-cyano-3-((7-cyano-4-(cyclopropylamino)imidazo[2,1-f][1,2,4]triazin-2-yl)amino)phenyl)-2-((2-hydroxyethyl)(methyl)amino)acetamide]
1.77 nM | CN(C)CC(=O)Nc1cc(C#N)cc(Nc2nc(NC3CC3)c3ncc(C#N)n3n2)c1Cl [Example 620, N-(2-chloro-5-cyano-3-((7-cyano-4-(cyclopropylamino)imidazo[2,1-f][1,2,4]triazin-2-yl)amino)phenyl)-2-(dimethylamino)acetamide]
1.62 nM | N#Cc1cc(NC(=O)CN2CCOCC2)c(Cl)c(Nc2nc(NC3CC3)c3ncc(C#N)n3n2)c1 [Example 621, N-(2-chloro-5-cyano-3-((7-cyano-4-(cyclopropylamino)imidazo[2,1-f][1,2,4]triazin-2-yl)amino)phenyl)-2-morpholinoacetamide]
3.05 nM | N#Cc1cc(Nc2nc(NC3CC3)c3ncc(C#N)n3n2)c(Cl)c(N2CCN(CC(N)=O)CC2=O)c1 [Example 623, 2-(4-(2-chloro-5-cyano-3-((7-cyano-4-(cyclopropylamino)imidazo[2,1-f][1,2,4]triazin-2-yl)amino)phenyl)-3-oxopiperazin-1-yl)acetamide]
5.8 nM | CNC(=O)CN1CCN(c2cc(C#N)cc(Nc3nc(NC4CC4)c4ncc(C#N)n4n3)c2Cl)C(=O)C1 [Example 625, 2-(4-(2-chloro-5-cyano-3-((7-cyano-4-(cyclopropylamino)imidazo[2,1-f][1,2,4]triazin-2-yl)amino)phenyl)-3-oxopiperazin-1-yl)-N-methylacetamide]
0.83 nM | N#Cc1cc(Nc2nc(NC3CC3)c3ncc(C#N)n3n2)c(Cl)c(N2CCCOC2=O)c1 [Example 627, 2-((2-chloro-5-cyano-3-(2-oxo-1,3-oxazinan-3-yl)phenyl)amino)-4-(cyclopropylamino)imidazo[2,1-f][1,2,4]triazine-7-carbonitrile]
9.85 nM | N#Cc1cc(Nc2nc(NC3CC3)c3ncc(C#N)n3n2)c(Cl)c(N2CCNCC2=O)c1 [Example 628, 2-((2-chloro-5-cyano-3-(2-oxopiperazin-1-yl)phenyl)amino)-4-(cyclopropylamino)imidazo[2,1-f][1,2,4]triazine-7-carbonitrile]
6 nM | CN1CCN(c2cc(C#N)cc(Nc3nc(NC4CC4)c4ncc(C#N)n4n3)c2)C(=O)C1 [Example 629, 2-((3-cyano-5-(4-methyl-2-oxopiperazin-1-yl)phenyl)amino)-4-(cyclopropylamino)imidazo[2,1-f][1,2,4]triazine-7-carbonitrile]
0.68 nM | CCNc1nc(Nc2cc(C#N)cc(NCCO)c2Cl)nn2c(C#N)cnc12 [Example 630, 2-((2-chloro-5-cyano-3-((2-hydroxyethyl)amino)phenyl)amino)-4-(ethylamino)imidazo[2,1-f][1,2,4]triazine-7-carbonitrile]
1.1 nM | COc1ccc(CN2CCN(c3cc(C#N)cc(Nc4nc(NC5CC5)c5ncc(C#N)n5n4)c3Cl)C(=O)C2)cc1 [Example 631, 2-((2-chloro-5-cyano-3-(4-(4-methoxybenzyl)-2-oxopiperazin-1-yl)phenyl)amino)-4-(cyclopropylamino)imidazo[2,1-f][1,2,4]triazine-7-carbonitrile]
1.45 nM | N#Cc1cc2c(c(Nc3nc(NC4CC4)c4ncc(C#N)n4n3)c1)NCCOCC(=O)N2 [Example 632, 11-((7-cyano-4-(cyclopropylamino)imidazo[2,1-f][1,2,4]triazin-2-yl)amino)-6-oxo-1,2,3,5,6,7-hexahydrobenzo[e][1,4,7]oxadiazonine-9-carbonitrile]
1.2 nM | CC(=O)N1CC(N2CCN(c3cc(C#N)cc(Nc4nc(NC5CC5)c5ncc(C#N)n5n4)c3Cl)C(=O)C2)C1 [Example 633, 2-((3-(4-(1-acetylazetidin-3-yl)-2-oxopiperazin-1-yl)-2-chloro-5-cyanophenyl)amino)-4-(cyclopropylamino)imidazo[2,1-f][1,2,4]triazine-7-carbonitrile]
3 nM | N#Cc1cc(Nc2nc(NC3CC3)c3ncc(C#N)n3n2)c(Cl)c(N2CCN(CCO)CC2=O)c1 [Example 634, 2-((2-chloro-5-cyano-3-(4-(2-hydroxyethyl)-2-oxopiperazin-1-yl)phenyl)amino)-4-(cyclopropylamino)imidazo[2,1-f][1,2,4]triazine-7-carbonitrile]
1.83 nM | CN1CCCN(c2cc(C#N)cc(Nc3nc(NC4CC4)c4ncc(C#N)n4n3)c2Cl)C(=O)C1 [Example 635, 2-((2-chloro-5-cyano-3-(4-methyl-2-oxo-1,4-diazepan-1-yl)phenyl)amino)-4-(cyclopropylamino)imidazo[2,1-f][1,2,4]triazine-7-carbonitrile]
1 nM | CCN1CCN(c2cc(C#N)cc(Nc3nc(NC4CC4)c4ncc(C#N)n4n3)c2Cl)C(=O)C1 [Example 636, 2-((2-chloro-5-cyano-3-(4-ethyl-2-oxopiperazin-1-yl)phenyl)amino)-4-(cyclopropylamino)imidazo[2,1-f][1,2,4]triazine-7-carbonitrile]
4.79 nM | CC(=O)N1CC(N2CCC(c3cc(C#N)cc(Nc4nc(NC5CC5)c5ncc(C#N)n5n4)c3F)CC2)C1 [Example 637, 2-((3-(1-(1-acetylazetidin-3-yl)piperidin-4-yl)-2-fluoro-5-cyanophenyl)amino)-4-(cyclopropylamino)imidazo[2,1-f][1,2,4]triazine-7-carbonitrile]
0.8 nM | N#Cc1cc(Nc2nc(NC3CC3)c3ncc(C#N)n3n2)c(Cl)c(C2CCN(C3CN(C(=O)C(F)(F)F)C3)CC2)c1 [Example 638, 2-((2-chloro-5-cyano-3-(1-(1-(2,2,2-trifluoroacetyl)azetidin-3-yl)piperidin-4-yl)phenyl)amino)-4-(cyclopropylamino)imidazo[2,1-f][1,2,4]triazine-7-carbonitrile]
4.01 nM | CC(C)(C(N)=O)N1CCC(c2cc(C#N)cc(Nc3nc(NC4CC4)c4ncc(C#N)n4n3)c2Cl)CC1 [Example 641, 2-(4-(2-chloro-5-cyano-3-((7-cyano-4-(cyclopropylamino)imidazo[2,1-f][1,2,4]triazin-2-yl)amino)phenyl)piperidin-1-yl)-2-methylpropanamide]
0.76 nM | CNC(=O)CN1CCC(c2cc(C#N)cc(Nc3nc(NC4CC4)c4ncc(C#N)n4n3)c2Cl)CC1 [Example 642, 2-(4-(2-chloro-5-cyano-3-((7-cyano-4-(cyclopropylamino)imidazo[2,1-f][1,2,4]triazin-2-yl)amino)phenyl)piperidin-1-yl)-N-methylacetamide]
2.12 nM | CC(C)(CO)N1CCC(c2cc(C#N)cc(Nc3nc(NC4CC4)c4ncc(C#N)n4n3)c2Cl)CC1 [Example 643, 2-((2-chloro-5-cyano-3-(1-(1-hydroxy-2-methylpropan-2-yl)piperidin-4-yl)phenyl)amino)-4-(cyclopropylamino)imidazo[2,1-f][1,2,4]triazine-7-carbonitrile]
0.85 nM | N#Cc1cc(Nc2nc(NC3CC3)c3ncc(C#N)n3n2)c(Cl)c(C2CCN(C3CCC3=O)CC2)c1 (centres unmarked) [Example 644, 2-((2-chloro-5-cyano-3-(1-(2-oxocyclobutyl)piperidin-4-yl)phenyl)amino)-4-(cyclopropylamino)imidazo[2,1-f][1,2,4]triazine-7-carbonitrile]
1.94 nM | CN1CCC(N2CC(O)(c3cc(C#N)cc(Nc4nc(NC5CC5)c5ncc(C#N)n5n4)c3Cl)C2)CC1 [Example 647, 2-((2-chloro-5-cyano-3-(3-hydroxy-1-(1-methylpiperidin-4-yl)azetidin-3-yl)phenyl)amino)-4-(cyclopropylamino)imidazo[2,1-f][1,2,4]triazine-7-carbonitrile]
0.85 nM | N#Cc1cc(Nc2nc(NC3CC3)c3ncc(C#N)n3n2)c(Cl)c(C2(O)CCN(C3COC3)CC2)c1 [Example 648, 2-((2-chloro-5-cyano-3-(4-hydroxy-1-(oxetan-3-yl)piperidin-4-yl)phenyl)amino)-4-(cyclopropylamino)imidazo[2,1-f][1,2,4]triazine-7-carbonitrile]
1.01 nM | CN1CCC(O)(c2cc(C#N)cc(Nc3nc(NC4CC4)c4ncc(C#N)n4n3)c2Cl)CC1 [Example 649, 2-((2-chloro-5-cyano-3-(4-hydroxy-1-methylpiperidin-4-yl)phenyl)amino)-4-(cyclopropylamino)imidazo[2,1-f][1,2,4]triazine-7-carbonitrile]
1.09 nM | CC(=O)N1CC(N2CCC(O)(c3cc(C#N)cc(Nc4nc(NC5CC5)c5ncc(C#N)n5n4)c3Cl)CC2)C1 [Example 650, 2-((3-(1-(1-acetylazetidin-3-yl)-4-hydroxypiperidin-4-yl)-2-chloro-5-cyanophenyl)amino)-4-(cyclopropylamino)imidazo[2,1-f][1,2,4]triazine-7-carbonitrile]
1.51 nM | N#Cc1cc(Nc2nc(NC3CC3)c3ncc(C#N)n3n2)c(Cl)c(C2(O)CCNC2)c1 (centres unmarked) [Example 651, 2-((2-chloro-5-cyano-3-(3-hydroxypyrrolidin-3-yl)phenyl)amino)-4-(cyclopropylamino)imidazo[2,1-f][1,2,4]triazine-7-carbonitrile]
0.83 nM | N#Cc1cc(Nc2nc(NC3CC3)c3ncc(C#N)n3n2)c(Cl)c(C2(O)CCN(C3COC3)C2)c1 (centres unmarked) [Example 652, 2-((2-chloro-5-cyano-3-(3-hydroxy-1-(oxetan-3-yl)pyrrolidin-3-yl)phenyl)amino)-4-(cyclopropylamino)imidazo[2,1-f][1,2,4]triazine-7-carbonitrile]
